Measurements taken from patent US8512941B2, “Biological material and methods and solutions for preservation thereof” (Core Dynamics Limited, priority 2004, dated 2013).
Several values for one entry are separate records, joined by “and”; a condition that tells them apart may be missing. Identical values can stand only once.

Columns and labels:
Type in all cases: cell-based
[1] = tested on: Mononuclear cells (MNC) derived from umbilical cord blood (UCB); assay: CD3 expression by FACS of lyophilized, rehydrated MNC; details: 0.1M Trehalose in PBS
Description: (§1) C. In this example a freezing solution composed of 0.1M Trehalose and either 0.47 mg/ml EGCG (×2.5) or 1.89 mg/ml EGCG (×10) in PBS was used. Samples volume was 2.5 ml and samples were frozen as described above and then lyophilized. After being in the lyophilizer for 72 h, the samples were taken out and rehydrated with 2.4 ml of DDW at 37° C. After rehydration samples were assayed for CD3 using FACS (fluorescent-activated cell sorter) in accordance with the method described in Huiling et al. The Journal of Immunology 2003, 171: 4824-4829, with minor modifications.

Red blood cells (RBC) [2] = assay: Post-thaw RBC hemolysis (cyanmethemoglobin assay, Drabkin's solution, Formula I); details: 4.12 mM EGCG in 20% (w/v) Dextran 40, 0.8% NaCl; 1890° C./min; 24 hours at −80° C.
Description: In the following Examples, unless specifically said otherwise, free hemoglobin levels detection was done by using the cyanmethemoglubin assay using Drabkin's solution (Sigma, USA) and reading the absorbance at 540 nm using an ELISA reader (Bio Tek Instruments, USA). Hemoglobin (Hb) concentration was measured in the supernatant and in the pellet, and the hemolysis percentage was calculated using Formula I: […]
Freezing solution was mixed in a 1:1 ration with packed red blood cells.
RBC were frozen at a volume of 2.5 ml in a 16 mm diameter test tube (Manara, Israel) using the MTG freezing device. […] The test tubes were rotated during freezing at 60 rounds per minute. After freezing, samples were stored for 24 hours in a −80° C. freezer (Forma, USA). Thawing was performed by plunging the samples in a water bath at 37° C. for a period of time under a minute, when the samples visually appears to have been completely thawed.
Samples were rotated at 60 RPM.

[3] = tested on: Mononuclear cells (MNC) derived from umbilical cord blood (UCB); assay: MNC proliferation assay based on thymidine incorporation; details: FIG. 9; cells lyophilized at ×10 EGCG (4.12 mM) versus ×2.5 EGCG (1.03 mM); 48 hour incubation
Description: In addition, a cell proliferation assay was performed. In brief, the hydrated cells were incubated for 48 hour after which a proliferation assay based on thymidine incorporation was carried out (Promega, USA). The results of the proliferation assay are depicted in FIG. 9, wherein the proliferation index of the cells is depicted as a function of their number at initial plating. […] In addition, as the cells' initial plating number increases so does the proliferation index. The almost linear proportion shown for one of the ×10 EGCG samples is similar to that observed with fresh cells

Red blood cells (RBC) [4] = assay: Hypothermic preservation of whole blood at 4° C.: cell count, MCV, ATP bioluminescence; details: on arrival, 15 minutes after adding, 1 week later, versus PBS bag
Description: Whole blood units, 2 days old, 500 ml each, were received from the Israeli blood services. 2 ml PBS were added to one bag and 2 ml PBS comprising 0.236 gram GTE (Taiyo, China) were added to the other. This GTE contains ˜80% catechins which contained the at least the following polyphenols: 48% EGCG, 10.8% epigallocatechin (EGC), 1.4% DL-Catechin (DL-C; (2S,3R)-2-(3,4-Dihydroxyphenol)-3,4-dihydro-1(2H)-benzopyran-3,5,7-triol), 5.6% epicatechin (EC). 2.6% gallocatechin gallate (GCG) and 14.5% epicatechin gallate (ECG). The final concentration of GTE was 0.4725 mg/ml. During delivery and storage the blood was maintained in a refrigerator at 4° C. storage.
1 ml samples were taken from each bag at the following times: (a) when the units arrived, (b) 15 minutes after adding PBS of EGCG and (c) 1 week later. The samples were counted and the mean cell value was measured using the Pentra 60 (ABX, France).
ATP content of each sample was assayed using ATP Bioluminescence Kit CLS II (Roche, Switzerland) according to the manufacturer's manual. In this assay, light emission is in direct proportion to the amount of ATP in the sample.

Red blood cells (RBC) [5] = assay: Freezing RBC without thermal gradients at varying NaCl concentrations; details: for Cell Number, Thawed / MCV, Thawed: 24 h at −80° C.
Description: Samples volume was 1 ml. The Samples were maintained for at least 10 min at 5° C. and then transferred to a metal plate in a conventional freezing device (Forma, USA) at −80° C. for a period of 24 h. […] The percentage shown, is the thawed samples as compared with a fresh sample.

[6] = tested on: Mononuclear cells (MNC) derived from umbilical cord blood (UCB); assay: MNC viability by membrane integrity (SYBR14/PI) after freeze thawing or freeze drying; details: for Mambrane integrity (%): 0.1M Trehalose in PBS
Description: Blood was separated on ficoll-paque gradient for 30 minutes at 1000 g. Afterwards the mononuclear layer was drawn out and washed twice in PBS for 10 minutes at 200 g. To each pellet one of the following freezing solutions was added:
2.5 ml of cell suspension were put in a 16 mm diameter glass test tube (Manara, Israel) and frozen using the MTG freezing apparatus (IMT, Israel). The temperature gradients were 1.5° C./mm and 0.428° C./mm, velocity was 0.2 mm/sec resulting in a cooling rate of 18° C./min and 5.1° C./min respectively. The first cooling rate was applied until the seeding temperature was reached. The samples were rotated at 56 rounds per minute (RPM).
After freezing samples were plunged into liquid nitrogen (LN), and then samples were either thawed at 37° C. in a water bath or put in a commercial lyophilizer (Labconco, USA) with a condenser temperature of −80° C. After drying the cells were rehydrated with DDW at 37° C.
Cells were counted using the PENTRA 60 cell counter, as described above. viability assessments were performed by evaluating the cells' membrane integrity using SYBR14 plus Propidium Iodide (PI) (Molecular Probes, USA) live/dead fluorescent staining. These stains are nucleic acid stains, SYBR14 is a membrane permeable molecule and PI can enter the cell only if the membrane is damaged.
as §1
Membrane integrity of the samples was evaluated before and after rehydration using SYBR 14 and PI (Molecular Probes, USA).

Red blood cells (RBC) [7] = assay: Osmotic fragility of RBC; details: 0.9 mg/ml EGCG, 20% dextran 40 kD, 0.8% NaCl
Description: The control group was whole blood. Portions of each of the EGCG supplemented and control were exposed to different sodium chloride concentrations of: 0.1, 0.2, 0.3, 0.4, 0.5, 0.6, 0.7, 0.8 and 0.9% (w/v).
Free hemoglobin was measured as described above and the hemolysis percentage was calculated using Formula I. The results of this experiment are shown in FIG. 8.

Red blood cells (RBC) [8] = assay: Freeze-dried and rehydrated RBC: cell number, MCV, hemolysis; details: for % Hemolysis in Lyo cells / MCV, Lyo / number of Cells, Lyo: lyophilized and rehydrated
Description: Freezing was performed as described in Example 5A. After freezing, samples were transferred to a commercial lyophilizer (Labconco, USA). Samples were lyophilized for 72 hours, after which rehydration was performed by adding 2.4 ml double distilled water at 37° C. back to the samples. After rehydration samples were counted and mean cell volume (MCV) was measured using the Pentra 60 (ABX, France) automatic cell counter. Free hemoglobin levels were measured as described above and the hemolysis percentage was calculated using Formula I.

Red blood cells (RBC) [9] = assay: RBC survival (cell count) after freezing/thawing or lyophilizing/rehydrating at 2.5 ml
Description: Red blood cells (RBC) were separated from whole blood received from the Israeli Blood Bank. The blood was centrifuged for 10 minutes at 1500 g and the plasma was discarded. […] Afterwards the supernatant was discarded, and an equal volume of cryopreservation solution selected from the solutions in Table I was added to the packed RBC. Different volumes (2.5-50 ml) of the RBC suspension were transferred to a 16-25 mm diameter glass test tube ([…], Israel). The experiment of freezing 200 ml of RBC suspension was done in a 2000 ml freezing bag (Baxter-Fenwal, USA). Samples were then either frozen and thawed in a water bath at 37° C. or lyophilized and rehydrated with double distilled water (DDW) at 37° C. Glass test tubes containing RBC were frozen in a modified MTG freezing apparatus, as described in WO 03/020874 (manufactured by IMT, Israel). The thermal gradient in the cooling unit was set to 5.5° C./mm or 10.5° C./mm or 15.5° C./mm (as detailed below) with final temperatures of -50° C., -100° C. or -150° C. […] During freezing the test tubes that contained only 2.5 ml samples were rotated at a rate of 56 rpm. Subsequent to freezing, biological material was taken from each test tube to test for cell viability. Lyophilization was performed in a commercial lyophilizer (Labconco, USA) with a condenser temperature of -82° C. for 72 hours. The biological material was is rehydrated by adding DDW to reach the sample's original volume. Frozen (but not lyophilized) material was thawed by immersion in a water bath at 37° C. for until it melted. Melting was observed visually. Cells were counted using the […] 60 cell counter (ABX, France), in accordance with the manufacturer's manual. This device provides a complete cell count (CBC) that includes parameters such as: cell number, hematocrit, mean cell volume, hemoglobin, etc. […] In these experiments the cell suspension volume was 2.5 ml.

O=C(O[C@@H]1Cc2c(O)cc(O)cc2O[C@@H]1c1cc(O)c(O)c(O)c1)c1cc(O)c(O)c(O)c1 [EGCG, Epigallocatechin gallate]
CD3 (%) ([1]; Lyophilized with 0.47 mg/ml EGCG): 80% | CD3 (%) ([1]; Lyophilized with 1.89 mg/ml EGCG): 81% and 83% and 82% and 78% | Post thaw hemolysis (Red blood cells (RBC) [2]): 3.5% | proliferation index [3]: higher proliferation index | Cells counts (Red blood cells (RBC) [4]): essentially the same | MCV (Red blood cells (RBC) [4]): essentially the same | Cell Number, % thawed compared with fresh (Red blood cells (RBC) [5]; NaCl 0.6%): 100.00% | MCV, % thawed compared with fresh (Red blood cells (RBC) [5]; NaCl 0.6%): 120.22% | Cell Number, Thawed (Red blood cells (RBC) [5]; NaCl 0.6%): 4.12 10^9/ml | MCV, Thawed (Red blood cells (RBC) [5]; NaCl 0.6%): 107 μm^3 | Cell Number, Fresh (Red blood cells (RBC) [5]; NaCl 0.6%): 4.12 10^9/ml | Cell Number, % thawed compared with fresh (Red blood cells (RBC) [5]; NaCl 0.7%): 100.00% | MCV, % thawed compared with fresh (Red blood cells (RBC) [5]; NaCl 0.7%): 124.44% | Cell Number, Thawed (Red blood cells (RBC) [5]; NaCl 0.7%): 4.27 10^9/ml | MCV, Thawed (Red blood cells (RBC) [5]; NaCl 0.7%): 112 μm^3 | Cell Number, Fresh (Red blood cells (RBC) [5]; NaCl 0.7%): 4.27 10^9/ml | Cell Number, % thawed compared with fresh (Red blood cells (RBC) [5]; NaCl 0.8%): 100.00% | MCV, % thawed compared with fresh (Red blood cells (RBC) [5]; NaCl 0.8%): 118.89% | Cell Number, Thawed (Red blood cells (RBC) [5]; NaCl 0.8%): 4.71 10^9/ml | MCV, Thawed (Red blood cells (RBC) [5]; NaCl 0.8%): 107 μm^3 | Cell Number, Fresh (Red blood cells (RBC) [5]; NaCl 0.8%): 4.71 10^9/ml | Cell Number, % thawed compared with fresh (Red blood cells (RBC) [5]; NaCl 0.9% (Saline)): 75.50% | MCV, % thawed compared with fresh (Red blood cells (RBC) [5]; NaCl 0.9% (Saline)): 101.11% | Cell Number, Thawed (Red blood cells (RBC) [5]; NaCl 0.9% (Saline)): 3.42 10^9/ml | MCV, Thawed (Red blood cells (RBC) [5]; NaCl 0.9% (Saline)): 91 μm^3 | Cell Number, Fresh (Red blood cells (RBC) [5]; NaCl 0.9% (Saline)): 4.53 10^9/ml | viability, effect of EGCG concentration ([6]; FIG. 7, 0.412, 1.03, 2.06, 4.12 mM EGCG with 0.1M trehalose in PBS, after freeze thawing and after freeze drying): viability increased with EGCG concentration | Mambrane integrity (%) ([6]; Fresh with 0.47 mg/ml EGCG): 97.36 ± 2.2% | Mambrane integrity (%) ([6]; Fresh with 1.89 mg/ml EGCG): 90.01 ± 4.3% | Mambrane integrity (%) ([6]; Lyophilized with 0.47 mg/ml EGCG, rehydrated): 55.1 ± 8.5% and 59.8 ± 1.4% | Mambrane integrity (%) ([6]; Lyophilized with 1.89 mg/ml EGCG, rehydrated): 79.31 ± 8.8% and 83.62 ± 5.7% and 88.4 ± 3.2% and 88.03 ± 5.6% | hemolysis versus control (whole blood) (Red blood cells (RBC) [7]; NaCl concentrations above 0.6% (w/v)): no significant difference | hemolysis versus control (whole blood) (Red blood cells (RBC) [7]; hypotonic environment (below 0.5% NaCl)): lower hemolysis rates | MCV, % of lyo from fresh (Red blood cells (RBC) [8]; 1.03 mM EGCG): 85.23% | number of Cells, % of lyo cells from fresh (Red blood cells (RBC) [8]; 1.03 mM EGCG): 67.22% | number of Cells, Fresh (Red blood cells (RBC) [8]; 1.03 mM EGCG in 20% Dextran 40, 0.8% NaCl): 4.21 10^9/ml | MCV, Fresh (Red blood cells (RBC) [8]; 1.03 mM EGCG): 88 μm^3 | % Hemolysis in Lyo cells (Red blood cells (RBC) [8]; 1.03 mM EGCG): 56.18% | MCV, Lyo (Red blood cells (RBC) [8]; 1.03 mM EGCG): 75 μm^3 | number of Cells, Lyo (Red blood cells (RBC) [8]; 1.03 mM EGCG): 2.83 10^9/ml | MCV, % of lyo from fresh (Red blood cells (RBC) [8]; 4.12 mM EGCG): 96.59% | number of Cells, % of lyo cells from fresh (Red blood cells (RBC) [8]; 4.12 mM EGCG): 63.32% | number of Cells, Fresh (Red blood cells (RBC) [8]; 4.12 mM EGCG in 20% Dextran 40, 0.8% NaCl): 4.58 10^9/ml | MCV, Fresh (Red blood cells (RBC) [8]; 4.12 mM EGCG): 88 μm^3 | % Hemolysis in Lyo cells (Red blood cells (RBC) [8]; 4.12 mM EGCG): 51.8% | MCV, Lyo (Red blood cells (RBC) [8]; 4.12 mM EGCG): 85 μm^3 | number of Cells, Lyo (Red blood cells (RBC) [8]; 4.12 mM EGCG): 2.9 10^9/ml | RBC survival, 1B Rehydrated (Red blood cells (RBC) [9]; frozen at 1,000° C./min, lyophilized, rehydrated with DDW): 49.19% | RBC survival, 1A Thawed (Red blood cells (RBC) [9]; frozen at 1,000° C./min, thawed, not lyophilized, percentage of total fresh cells counted): 84.53% | RBC survival, 2A Thawed (Red blood cells (RBC) [9]; frozen at 2,000° C./min, thawed, not lyophilized): 72.92%
